Calls of active or inactive are those of the source. The rule behind the calls is not given here.
What was measured:
U-251 [1] = test: Cytotoxicity against human U251 cells after 72 hrs by Hoechst test; assay type: functional, cell-based; details: U-251, 72 h
HL-60 = test: Cytotoxicity against human HL60 cells after 72 hrs by MTT assay; assay type: functional, cell-based; details: HL-60, 72 h
MCF7 = test: Cytotoxicity against human MCF7 cells after 72 hrs by Hoechst test; assay type: functional, cell-based; details: MCF7, 72 h
[2] = Cytotoxicity against human MCF7/DX cells after 72 hrs by Hoechst test; assay type: functional, cell-based
U-251 [3] = test: Increase in ROS production in human U251 cells at 50 uM after 4 hrs by FACS flow cytometry; assay type: functional
U-251 [4] = test: Cytotoxicity against human U251 cells assessed as ROS production by Hoechst test in presence of N-acetyl-L-cysteine; assay type: functional, cell-based
U-251 [5] = test: Induction of histone H4 hyperacetylation in human U251 cells at 100 uM after 4 hrs by Western blot relative to control; assay type: functional
U-251 [6] = test: Increase in heme level in human U251 cells assessed as porphobilinogen deaminase level at 100 uM after 2 hrs by Western blot relative to control; assay type: functional
U-251 [7] = test: Increase in protoporphyrin 9 levels in human U251 cells at 100 uM after 24 hrs relative to control; assay type: functional
U-251 [8] = test: Increase in protoporphyrin 9 levels in human U251 cells at 200 uM after 24 hrs relative to control; assay type: functional
U-251 [9] = test: Antiproliferative activity against human U251 cells assessed as PpIX release after 72 hrs by Hoechst test; assay type: functional, cell-based; details: U-251, 72 h
U-251 [10] = test: Antiproliferative activity against human U251 cells assessed as PpIX release pretreated 72 hrs before 360-410 nm light photosensitization measured after 48 hrs by Hoechst test; assay type: functional, cell-based
U-251 [11] = test: Inhibition of 26S proteasome activity in human U251 cells at 100 uM after 48 hrs relative to control; assay type: cell-based; details: values are per cent of control
U-251 [12] = test: Inhibition of 26S proteasome activity in human U251 cells at 100 uM after 48 hrs in presence of N-acetyl-L-cysteine relative to control; assay type: cell-based; details: values are per cent of control
U-251 [13] = test: Induction of apoptosis in human U251 cells assessed as early apoptotic cells at 100 uM after 48 hrs using annexin-V FITC and PI staining by flow cytometry in presence of Ac-LEHD-CHO; assay type: functional
U-251 [14] = test: Induction of necrosis in human U251 cells assessed as necrotic cells at 100 uM after 48 hrs using annexin-V FITC and PI staining by flow cytometry in presence of Ac-LEHD-CHO; assay type: functional
U-251 [15] = test: Induction of apoptosis in human U251 cells assessed as late apoptotic cells at 100 uM after 48 hrs using annexin-V FITC and PI staining by flow cytometry in presence of Z-Asp-2,6-dichlorobenzoyloxymethylketone; assay type: functional
U-251 [16] = test: Increase in CDKp21 expression levels in human U251 cells at 100 uM after 24 hrs by Western blot; assay type: functional, cell-based
U-251 [17] = test: Induction of apoptosis in human U251 cells assessed as viable cells at 100 uM after 48 hrs using annexin-V FITC and PI staining by flow cytometry in presence of Ac-LEHD-CHO; assay type: functional; details: U-251, 48 h, read-out: Activity
U-251 [18] = test: Induction of apoptosis in human U251 cells assessed as viable cells at 100 uM after 48 hrs using annexin-V FITC and PI staining by flow cytometry; assay type: functional; details: U-251, 48 h, read-out: Activity
U-251 [19] = test: Induction of necrosis in human U251 cells assessed as necrotic cells at 100 uM after 48 hrs using annexin-V FITC and PI staining by flow cytometry; assay type: functional
U-251 [20] = test: Induction of apoptosis in human U251 cells assessed as early apoptotic cells at 100 uM after 48 hrs using annexin-V FITC and PI staining by flow cytometry; assay type: functional
U-251 [21] = test: Induction of apoptosis in human U251 cells assessed as late apoptotic cells at 100 uM after 48 hrs using annexin-V FITC and PI staining by flow cytometry; assay type: functional
U-251 [22] = test: Induction of apoptosis in human U251 cells assessed as late apoptotic cells at 100 uM after 48 hrs using annexin-V FITC and PI staining by flow cytometry in presence of Ac-LEHD-CHO; assay type: functional
U-251 [23] = test: Induction of apoptosis in human U251 cells assessed as viable cells at 100 uM after 48 hrs using annexin-V FITC and PI staining by flow cytometry in presence of Z-Asp-2,6-dichlorobenzoyloxymethylketone; assay type: functional; details: U-251, 48 h, read-out: Activity
U-251 [24] = test: Induction of necrosis in human U251 cells assessed as necrotic cells at 100 uM after 48 hrs using annexin-V FITC and PI staining by flow cytometry in presence of Z-Asp-2,6-dichlorobenzoyloxymethylketone; assay type: functional
U-251 [25] = test: Induction of apoptosis in human U251 cells assessed as early apoptotic cells at 100 uM after 48 hrs using annexin-V FITC and PI staining by flow cytometry in presence of Z-Asp-2,6-dichlorobenzoyloxymethylketone; assay type: functional
U-251 [26] = test: Increase in ROS production in human U251 cells at 100 uM after 4 hrs by FACS; assay type: functional, cell-based
U-251 [27] = test: Increase in ROS production in human U251 cells at 100 uM after 4 hrs by FACS in presence of N-acetyl-L-cysteine; assay type: functional, cell-based
U-251 [28] = test: Increase in heme level in human U251 cells at 100 uM after 48 hrs by Western blot relative to control; assay type: functional
U-251 [29] = test: Increase in heme level in human U251 cells assessed as porphobilinogen deaminase level at 100 uM after 2 hrs by Western blot in presence of cycloheximide; assay type: functional, cell-based
U-251 [30] = test: Inhibition of 26S proteasome activity in human U251 cells at 1 mM after 48 hrs; assay type: cell-based
U-251 [31] = test: Induction of apoptosis in human U251 cells assessed as increase in full length caspase 8 level after 24 hrs by Western blot; assay type: functional, cell-based
U-251 [32] = test: Increase in ROS production in human U251 cells at 50 uM after 4 hrs by FACS flow cytometry in presence of N-acetyl-L-cysteine; assay type: functional, cell-based
U-251 [33] = test: Induction of histone H4 hyperacetylation in human U251 cells at 100 uM after 24 hrs by Western blot relative to control; assay type: functional
U-251 [34] = test: Inhibition of 26S proteasome activity in human U251 cells at 100 uM after 24 hrs relative to control; assay type: cell-based
U-251 [35] = test: Induction of apoptosis in human U251 cells assessed as mitochondrial membrane potential dissipation at 100 uM after 24 hrs using JC1 dye by FACS relative to control; assay type: functional
U-251 [36] = test: Induction of apoptosis in human U251 cells assessed as increase in cleaved caspase 9 level after 24 hrs by Western blot; assay type: functional, cell-based
U-251 [37] = test: Induction of apoptosis in human U251 cells assessed as increase in cleaved caspase 3 level after 24 hrs by Western blot; assay type: functional, cell-based
U-251 [38] = test: Reduction in c-myc expression levels in human U251 cells at 100 uM after 4 hrs by Western blot; assay type: functional, cell-based
U-251 [39] = test: Increase in pH2AX expression levels in human U251 cells at 100 uM after 2 hrs by Western blot; assay type: functional, cell-based
U-251 [40] = test: Increase in CDKp21 expression levels in human U251 cells at 100 uM after 4 hrs by Western blot; assay type: functional, cell-based
U-251 [41] = test: Increase in pERK expression levels in human U251 cells at 100 uM after 2 hrs by Western blot relative to control; assay type: functional
U-251 [42] = test: Increase in p-c-Jun expression levels in human U251 cells at 100 uM after 2 hrs by Western blot relative to control; assay type: functional
U-251 [43] = test: Inhibition of 26S proteasome activity in human U251 cells at 0.5 mM after 24 hrs; assay type: cell-based

Structure (SMILES) | IC50 (U-251 [1]) | IC50 (HL-60) | IC50 (MCF7) | IC50 [2] | Activity (U-251 [4]) | fold change (FC) (U-251 [6]) | residual activity (U-251 [11]) | residual activity (U-251 [12]) | Activity (U-251 [13]) | Activity (U-251 [14]) | Activity (U-251 [15]) | viability at 100 µM (U-251 [17]) | viability at 100 µM (U-251 [18]) | Activity (U-251 [19]) | Activity (U-251 [20]) | Activity (U-251 [21]) | Activity (U-251 [22]) | viability at 100 µM (U-251 [23]) | Activity (U-251 [24]) | Activity (U-251 [25]) | further results
CCCC(=O)OC(C)OC(=O)CCC(=O)CN.Cl (centres undefined) | 728 µM | 274 µM | 714 µM | 807 µM | Active | 2 | 117% | 146% | 3% | 8% | 3% | 86% | 80% | 10% | 4% | 6% | 3% | 88% | 7% | 2% | Activity (U-251 [3]): Active; fold change (FC) (U-251 [5]): 1.4; fold change (FC) (U-251 [7]): 5; fold change (FC) (U-251 [8]): 7.8; IC50 (U-251 [9]): 767 µM; IC50 (U-251 [10]): 509 µM; Activity (U-251 [16]): Active
CCCC(CCC)C(=O)OC(C)OC(=O)CCC(=O)CN (centres undefined) | 1040 µM | 780 µM | – | – | – | – | – | – | – | – | – | – | – | – | – | – | – | – | – | – | –
CCCC(CCC)C(=O)OCOC(=O)CCC(=O)CN | 64 µM | – | – | – | – | – | – | – | – | – | – | – | – | – | – | – | – | – | – | – | –
NCC(=O)CCC(=O)O [AMINOLEVULINIC ACID] | 2660 µM | 1570 µM | 1740 µM | 3480 µM | – | 2 | 100% | 102% | 2% | 17% | 5% | 78% | 76% | 7% | 6% | 14% | 3% | 76% | 17% | 2% | Activity (U-251 [26]): Active; Activity (U-251 [27]): inactive; Activity (U-251 [28]): 130%; Activity (U-251 [29]): Active; fold change (FC) (U-251 [7]): 3; fold change (FC) (U-251 [8]): 7.2; IC50 (U-251 [9]): 2720 µM; IC50 (U-251 [10]): 2720 µM; Activity (U-251 [30]): Active; Activity (U-251 [31]): Active
CCCC(=O)OCOC(=O)CCC(=O)CN.Cl | 89 µM | 57 µM | 74 µM | 84 µM | Active | 8 | 56% | 64% | 2% | 15% | 5% | 81% | 47% | 19% | 17% | 17% | 2% | 80% | 11% | 4% | Activity (U-251 [3]): 68%; Activity (U-251 [32]): Active; fold change (FC) (U-251 [5]): 1.4; fold change (FC) (U-251 [33]): 2; Activity (U-251 [28]): 260%; Activity (U-251 [29]): inactive; fold change (FC) (U-251 [7]): 6.6; fold change (FC) (U-251 [8]): 12.4; IC50 (U-251 [9]): 99 µM; IC50 (U-251 [10]): 59 µM; inhibition (U-251 [34]): 40%; fold change (FC) (U-251 [35]): 2.4; Activity (U-251 [31]): Active; Activity (U-251 [36]): Active; Activity (U-251 [37]): Active; Activity (U-251 [38]): Active; Activity (U-251 [39]): Active; Activity (U-251 [40]): Active; fold change (FC) (U-251 [41]): 5.4; fold change (FC) (U-251 [42]): 9.5
CCCC(=O)O [BUTYRIC ACID] | 932 µM | – | – | – | – | – | 74% | 80% | – | – | – | – | – | – | – | – | – | – | – | – | Activity (U-251 [26]): Active; Activity (U-251 [27]): Active; Activity (U-251 [28]): 126%; Activity (U-251 [43]): Active
CCCC(=O)OCOP(=O)(OCC)OCC [(DIETHOXYPHOSPHORYLOXY)METHYL BUTYRATE] | 89 µM | – | – | – | – | – | – | – | – | – | – | – | – | – | – | – | – | – | – | – | Activity (U-251 [32]): Active; Activity (U-251 [8]): inactive; Activity (U-251 [34]): Active
CC(C)(C)C(=O)OCOC(=O)CCC(=O)CN.Cl | 93 µM | 44 µM | 64 µM | 61 µM | inactive | 2 | 54% | 101% | 2% | 17% | 5% | 77% | 67% | 9% | 15% | 9% | 4% | 82% | 11% | 2% | Activity (U-251 [32]): inactive; Activity (U-251 [5]): inactive; Activity (U-251 [29]): Active; fold change (FC) (U-251 [35]): 3; Activity (U-251 [31]): Active; Activity (U-251 [36]): Active; Activity (U-251 [37]): Active
CC(OC(=O)CCC(=O)CN)OC(=O)C(C)(C)C (centres undefined) | 2040 µM | 1390 µM | – | – | – | – | – | – | – | – | – | – | – | – | – | – | – | – | – | – | –

Source: ChEMBL document CHEMBL1140223, “Novel multifunctional acyloxyalkyl ester prodrugs of 5-aminolevulinic acid display improved anticancer activity independent and dependent on photoactivation” (J Med Chem, 2008)
